# “Also recorded” adds a separate entry of the source. Like-named read-outs stand apart in the source and are kept apart here.
# Assays:
# STx2-induced cell death = format: cell-based, human
# [1] = system: transport of STx2B to the Golgi apparatus; format: cell-based, human
# [2] = system: pH of endolysosomal compartments; format: cell-based, human
# [3] = system: transport of STx2B to the Golgi apparatus; conditions: cited from earlier work
# [4] = system: transport of STx1 B-subunit (STx1B) to the Golgi; conditions: cited from earlier work
# lethal STx1 toxicosis [5] = conditions: mouse, in vivo; cited from earlier work
# [6] = system: recruitment of retromer component Vps26 to early endosomes; format: cell-based, human
# HeLa cells = conditions: 10 μM
# [7] = system: transport of STx1 B-subunit (STx1B) to the Golgi; format: cell-based, human
# STx1-induced cell death = format: cell-based, human
# LC3-positive punctae = format: cell-based, human
# lethal STx1 toxicosis [8] = conditions: mouse, in vivo
# lethal STx2 toxicosis = conditions: mouse, in vivo
structure (smiles),measurement,setting,value
"CC/C(=C(\c1ccc(O)cc1)c1ccc(OCCN(C)C)cc1)c1ccccc1 [4-hydroxytamoxifen, (Z)-4-(1-(4-(2-(dimethylamino)ethoxy)phenyl)-2-phenylbut-1-en-1-yl)phenol]",Protection against STx2-induced cell death relative to tamoxifen,STx2-induced cell death,A lower level of protection
CO/C1=C\C(C)=C\[C@@H](C)[C@@H](O)[C@@H](C)C/C(C)=C/C=C/[C@H](OC)[C@@H]([C@@H](C)[C@@H](O)[C@H](C)[C@@]2(O)C[C@@H](O)[C@H](C)[C@@H](C(C)C)O2)OC1=O [bafilomycin A1],STx2B transport after short treatment,[1],did not have an effect; also recorded: There were no differences between groups
same,Transport of STx2B to the Golgi apparatus,[1],robustly inhibited the transport of STx2B to the Golgi apparatus
same,Change in endolysosomal pH (Lysosensor signal),[2],a similar effect was observed
same,Morphology of endolysosomal compartments,[2],morphological differences were apparent
CCN(CC)CCCC(C)Nc1ccnc2cc(Cl)ccc12 (stereo not drawn) [chloroquine],Transport of STx2B to the Golgi apparatus,[1],inhibitors of STx2B transport
"CC/C(=C(\c1ccc(O)cc1)c1ccc(OCCNC)cc1)c1ccccc1 [endoxifen, (Z)-4-(1-(4-(2-(methylamino)ethoxy)phenyl)-2-phenylbut-1-en-1-yl)phenol]",Protection against STx2-induced cell death relative to tamoxifen,STx2-induced cell death,substantially weaker than tamoxifen or 4-hydroxytamoxifen
[Mn+2] [manganese],Sensitivity of STx2 transport to manganese (literature),[3],manganese-insensitive
same,Early endosome-to-Golgi transport of STx1 (literature),[4],blocks the early endosome-to-Golgi transport of STx1
same,Protection against lethal STx1-toxicosis (literature),lethal STx1 toxicosis [5],protects cells and mice against lethal STx1-toxicosis
OCCOc1ccc(/C(=C(/CCCl)c2ccccc2)c2ccccc2)cc1 [ospemifene],Transport of STx2B to the Golgi (data not shown),[1],did not
same,Protection against STx2-induced cell death relative to tamoxifen,STx2-induced cell death,failed to protect all together
same,Recruitment of Vps26 to early endosomes,[6],did not
"O=C(c1ccc(OCCN2CCCCC2)cc1)c1c(-c2ccc(O)cc2)sc2cc(O)ccc12 [raloxifene, (6-hydroxy-2-(4-hydroxyphenyl)benzo[b]thiophen-3-yl)(4-(2-(piperidin-1-yl)ethoxy)phenyl)methanone]",Protection against STx2-induced cell death relative to tamoxifen,STx2-induced cell death,provided as much protection as tamoxifen against STx2-induced cell death
same,Cytotoxicity / cell viability of compound by itself,HeLa cells,did not alter cell viability by themselves
"CC/C(=C(\c1ccccc1)c1ccc(OCCN(C)C)cc1)c1ccccc1 [tamoxifen, (Z)-2-(4-(1,2-diphenyl-1-butenyl)phenoxy)-N,N-dimethylethan-1-amine]",Fate of STx2B in treated cells,[1],the toxin failed to traffic to the Golgi and instead was rerouted to Rab7-positive late endosomes and degraded
same,STx2B transport after short treatment,[1],did not have an effect; also recorded: There were no differences between groups
same,Transport of STx2B to the Golgi apparatus,[1],inhibitors of STx2B transport
same,Inhibitory effect on STx2B transport compared with chloroquine,[1]; 24 h,had a greater inhibitory effect
same,Transport of STx1B to the Golgi and STx1B degradation,[7],inhibited the transport of STx1 B-subunit (STx1B) to the Golgi and induced degradation of STx1B
same,Lowest tamoxifen dose at which protection was evident,STx2-induced cell death,2.5 µM
same,Protection against STx2-induced cell death,STx2-induced cell death,~200 fold
same,Protection against STx1-induced cell death,STx1-induced cell death,~50 fold
same,Change in endolysosomal pH (Lysosensor signal),[2],an increase evident at early time-points (30-60 min) but not 24 h after treatment
same,Morphology of endolysosomal compartments,[2],morphological differences were apparent
same,Positioning of early endosomes,[6],gained a perinuclear prominence
same,Recruitment of Vps26 to early endosomes,[6]; 10 μM,enhanced
same,LC3-positive punctae,LC3-positive punctae,elevated
same,"Health until end of experiment, STx1-group",lethal STx1 toxicosis [8],a subset of tamoxifen-treated mice remained healthy until the end of the experiment
same,Survival of STx1-treated mice,lethal STx1 toxicosis [8]; ip,significantly improved the survival
same,Protection against STx2 with additional oral tamoxifen after toxin,lethal STx2 toxicosis,A similar level of protection against STx2
same,"Survival time versus vehicle, STx2",lethal STx2 toxicosis,survived for significantly longer than those that received vehicle
same,Survival of STx2-treated mice,lethal STx2 toxicosis; ip,significantly improved the survival
same,Cytotoxicity / cell viability of compound by itself,HeLa cells,without inducing cytotoxicity
"CN(C)CCOc1ccc(/C(=C(/CCCl)c2ccccc2)c2ccccc2)cc1 [toremifene, (Z)-2-(4-(4-chloro-1,2-diphenylbut-1-en-1-yl)phenoxy)-N,N-dimethylethan-1-amine]",Transport of STx2B to the Golgi (data not shown),[1]; 10 μM,blocked transport of STx2B to the Golgi
same,Protection against STx2-induced cell death relative to tamoxifen,STx2-induced cell death,provided as much protection as tamoxifen against STx2-induced cell death
same,Endolysosomal pH at 30 min (data not shown),"[2]; 10 μM, 30 min",increased endolysosomal pH at 30 min
same,Recruitment of Vps26 to early endosomes,[6]; 10 μM,increased Vps26 levels on early endosomes at 24 h
same,Cytotoxicity / cell viability of compound by itself,HeLa cells,did not alter cell viability by themselves

# From patent publication US11304916B2 (priority 2019, dated 2022)
